Values after ≈ are worked out from the molar mass of the structure shown. Structures can show the parent of a compound that is named as a salt. Where two headings read alike, the source gives them in different places.
Experiments:
A.baumannii (Ab) = assay: Broth microdilution MIC against A.baumannii (Ab); type: cell-based; settings: Acinetobacter baumannii
Protocol: (§1) A certified BSL-2 laboratory was used for testing. Compounds were evaluated using the broth microdilution minimum inhibitory concentration (MIC) and minimum bactericidal concentration (MBC) assays defined by Clinical and Laboratory Standards Institute (CLSI) in the M26-A guideline against S.aureus (Sa), E.coli (Ec), K.pneumoniae (Kp), A.baumannii (Ab), E.faecalis (Ef) and P.aeruginosa (Pa).
(§2) MICs were determined using the Clinical Laboratory and Standards Institute (CLSI) Broth Microdilution Method with slight modification. Clinical and Laboratory Standards Institute (2012). “Methods for dilution antimicrobial susceptibility tests for bacteria that grow aerobically; approved standard, 9th ed. M07-A9. Clinical and Laboratory Standards Institute, Wayne, PA.” Serial two-fold dilutions of compounds are prepared in sterile clear roundbottom 96-well plates.
(§3) To prepare microdilution trays, two-fold dilutions of antimicrobial agent are prepared in growth medium: Cation-Adjusted Mueller-Hinton Broth (CAMHB), or CAMHB supplemented with sodium bicarbonate (6.25 or 25 mM final concentration prepared from a 1.0 M stock solution) or CAMHB supplemented with heat inactivated human serum (Fisher Cat. # BP2657100) 0-50% by adding 200 µL of the highest concentration to be tested (64 µg/mL, for example) in row A, mixing and transferring 100 µL from row A to 100 µL growth medium in row B, then repeating the mixing and transferring through row H of the 96-well plate, discarding the excess 100 µL remaining. This slight modification to the CLSI protocol enables evaluation of MICs for 3 compounds per plate in triplicate, albeit with only 8 compound dilutions (CLSI protocol enables 2 compounds in triplicate with 10 dilutions). Bacterial suspensions are added to a final concentration of 5 × 10^4 CFU/well by adding 5 µL of a 1:10 dilution of a 0.5 McFarland suspension (1 × 10^8 CFU/mL) for each bacterium evaluated. Bacterial suspensions were prepared using the growth method described by CLSI. Well-isolated colonies (3-5 from an agar plate) were selected using a sterile loop and used to inoculate a tube containing 4 mL of CAMHB. The cultures are incubated at 35 ± 2° C. until it achieves or exceeds the turbidity of the 0.5 McFarland standard, determined by measuring A600nm (usually two to six hours). When growth exceeds a 0.5 McFarland standard, the turbidity is adjusted with broth to be equivalent to a 0.5 McFarland standard.

E.faecalis (Ef) = assay: Broth microdilution MIC against E.faecalis (Ef); type: cell-based; settings: Enterococcus faecalis
Protocol: as §1, §2, §3

P.aeruginosa (Pa) = assay: Broth microdilution MIC against P.aeruginosa (Pa); type: cell-based; settings: Pseudomonas aeruginosa
Protocol: as §1, §2, §3

S.aureus (Sa) = assay: Broth microdilution MIC against S.aureus (Sa); type: cell-based; settings: Staphylococcus aureus
Protocol: as §1, §2, §3

[1] = test system: E.coli S30 extract (bacterial protein synthesis); assay: E.coli S30 extract: inhibition of bacterial protein synthesis (luciferase); type: biochemical; settings: 37° C. for 1 hour
Protocol: E.coli S30 extract: Inhibition of bacterial protein synthesis was determined using the E.coli S30 Extract System for Circular DNA (Promega catalog #L-2010) and Luciferase Assay Reagent (Promega catalog #E1500) with slight modifications to a published protocol. Fyfe, C., Sutcliffe, J.A. and Grossman, T.H. (2012) “Development and characterization of a Pseudomonas aeruginosa in vitro coupled transcription-translation assay system for evaluation of translation inhibitors” J. Microbiol. Methods 90(3), 256-261.
Compounds were serial diluted in 0.5 mL microcentrifuge tubes by mixing and transferring 50 µL from the highest concentration to 50 µL of water, mixing and transferring 50 µL of this 2-fold dilution to 50 µL of water. This mixing and transferring was repeated so that there are a total of 8 tubes with serial dilutions of compound at 10× the desired screening concentration that are ultimately diluted to 1× by the addition of S30 luciferase synthesis mixture. Serial dilutions of compounds were added (2 µL) to wells in a black round bottom 96-well plate. Water (2 µL) was used as a “no inhibitor” control in 4 wells/plate. No DNA control reaction mixture (20 µL; see below) was used as a control in 4 wells/plate for background luminescence. S30 luciferase synthesis mixture (18 µL; see below) was added to wells with compounds or water mixture and incubated at 37° C. for 1 hour. Reactions were stopped by transferring to 4° C. refrigerator for 5 minutes then 25 µL of luciferase activity mix was added. Luminescence was measured using a BioTek Synergy HTX plate reader. % Inhibition was determined relative to no inhibitor controls.
S30 luciferase synthesis mixture: • 445 µL S30 extract, circular • 712 µL S30 Premix without amino acids • 4.45 µL pBESTluc™ DNA (1 µg/ µL) • 78 µL complete amino acid mixture • 267 µL water
No DNA control: • 20 µL S30 extract, circular • 32 µL S30 Premix without amino acids • 7 µL complete amino acid mixture • 21 µL water

[2] = molecular target: Rabbit Reticulocyte Lysate (eukaryotic protein synthesis); assay: Rabbit Reticulocyte Lysate: inhibition of eukaryotic protein synthesis (luciferase); type: biochemical; settings: 30° C. for 90 minutes, read-out: retic. IC50
Protocol: Inhibition of eukaryotic protein synthesis was determined using the Rabbit Reticulocyte Lysate System, Nuclease-Treated from Promega (catalog #L-4960) with slight modifications to the manufacturer’s protocol. Compounds were serial diluted in 0.5 mL microcentrifuge tubes by mixing and transferring 50 µL from the highest concentration to 50 µL of water, mixing and transferring 50 µL of this 2-fold dilution to 50 µL of water. This mixing and transferring was repeated so that there are a total of 8 tubes with serial dilutions of compound at 10× the desired screening concentration that are ultimately diluted to 1× by the addition of rabbit reticulocyte luciferase synthesis mixture. Serial dilutions of compounds were added (2.5 µL) to wells in a black round bottom 96-well plate. Water (2.5 µL) was used as a “no inhibitor” control in 4 wells/plate. No RNA control reaction mixture (2 µL; see below) was used as a control in 4 wells/plate for background luminescence. Rabbit reticulocyte luciferase synthesis mixture (22.5 µL; see below) was added to wells with compounds or water mixture and incubated at 30° C. for 90 minutes. Luciferase assay reagent (25 µL) was added with luminescence measured using a BioTek Synergy HTX plate reader. % Inhibition was determined relative to no inhibitor controls.
Rabbit reticulocyte luciferase synthesis mixture: • 1,000 µL rabbit reticulocyte lysate • 5.7 µL Luciferase Control RNA (1 µg/ µL) • 26 µL complete amino acid mixture • 395 µL water
No RNA Control • 70 µL rabbit reticulocyte lysate • 2 µL complete amino acid mixture • 28 µL water

E.coli (Ec) = assay: Broth microdilution MIC against E.coli (Ec); type: cell-based; settings: Escherichia coli
Protocol: as §1, §2, §3

[3] = read-out: E.coli + bicarb 25 (MIC)
[4] = CAMHB supplemented with sodium bicarbonate 25 mM, read-out: Ab +bicarb 25 (MIC)
[5] = CAMHB supplemented with sodium bicarbonate 25 mM, read-out: Ef +bicarb 25 (MIC)
[6] = CAMHB supplemented with sodium bicarbonate 25 mM, read-out: Pa +bicarb 25 (MIC)
[7] = CAMHB supplemented with sodium bicarbonate 25 mM, read-out: Sa + bicarb 25 (MIC)
[8] = CAMHB supplemented with sodium bicarbonate 25 mM, read-out: E.coli + bicarb 25 (MIC)
[9] = CAMHB supplemented with sodium bicarbonate 6.25 mM, read-out: Ab +bicarb 6.25 (MIC)
[10] = CAMHB supplemented with sodium bicarbonate 6.25 mM, read-out: Ef +bicarb 6.25 (MIC)
[11] = CAMHB supplemented with sodium bicarbonate 6.25 mM, read-out: Pa +bicarb 6.25 (MIC)
[12] = CAMHB supplemented with sodium bicarbonate 6.25 mM, read-out: Sa + bicarb 6.25 (MIC)
[13] = CAMHB supplemented with sodium bicarbonate 6.25 mM, read-out: E. coli + bicarb 6.25 (MIC)

Row | SMILES | IC50 [1] | IC50 [2] | MIC (A.baumannii (Ab); [4]) | MIC (E.faecalis (Ef); [5]) | MIC (P.aeruginosa (Pa); [6]) | MIC (S.aureus (Sa); [7]) | MIC (E.coli (Ec); [8]) | MIC (A.baumannii (Ab); [9]) | MIC (E.faecalis (Ef); [10]) | MIC (P.aeruginosa (Pa); [11]) | MIC (S.aureus (Sa); [12]) | MIC (E.coli (Ec); [13]) | other results
1 | CCN(C1CCc2cc(-n3ccc(NC(=O)N4CCN(C(=O)C(C)(C)N)CC4)nc3=O)ccc2C1)[C@H]1CC[C@H](N)CC1 (stereo partly drawn) [Compound 16, 4-(2-Amino-2-methylpropanoyl)-N-(1-(6-(((trans)-4-aminocyclohexyl)(ethyl)amino)-5,6,7,8-tetrahydronaphthalen-2-yl)-2-oxo-1,2-dihydropyrimidin-4-yl)piperazine-1-carboxamide hydrochloride salt] | < 500 nM | ≥ 1000 nM |  |  |  |  |  |  |  |  |  |  | MIC (A.baumannii (Ab); read-out: Ab +bicarb 25 (MIC)): 8 to 32 µg/mL; MIC (E.faecalis (Ef); read-out: Ef +bicarb 25 (MIC)): < 8 µg/mL; MIC (P.aeruginosa (Pa); read-out: Pa +bicarb 25 (MIC)): 8 to 32 µg/mL; MIC (S.aureus (Sa); read-out: Sa + bicarb 25 (MIC)): < 8 µg/mL; MIC (E.coli (Ec); [3]): < 8 µg/mL
2 | CC(C)(N)C(=O)N1CCN(C(=O)Nc2ccn(-c3ccc4c(c3)CCC(N(CC3CC3)[C@H]3CC[C@H](N)CC3)C4)c(=O)n2)CC1 (stereo partly drawn) [Compound 17, 4-(2-Amino-2-methylpropanoyl)-N-(1-(6-(((trans)-4-aminocyclohexyl)(cyclopropylmethyl)amino)-5,6,7,8-tetrahydronaphthalen-2-yl)-2-oxo-1,2-dihydropyrimidin-4-yl)piperazine-1-carboxamide hydrochloride salt] | 500 to 1000 nM | ≥ 1000 nM |  |  |  |  |  |  |  |  |  |  | MIC (A.baumannii (Ab); read-out: Ab +bicarb 25 (MIC)): 8 to 32 µg/mL; MIC (E.faecalis (Ef); read-out: Ef +bicarb 25 (MIC)): < 8 µg/mL; MIC (P.aeruginosa (Pa); read-out: Pa +bicarb 25 (MIC)): 8 to 32 µg/mL; MIC (S.aureus (Sa); read-out: Sa + bicarb 25 (MIC)): < 8 µg/mL; MIC (E.coli (Ec); [3]): < 8 µg/mL
3 | CC(C)(N)C(=O)N1CCN(C(=O)Nc2ccn(-c3ccc4c(c3)OCC(N3CC[C@H](CN)C3)C4)c(=O)n2)CC1 (stereo partly shown) [Compound 18] | ≥ 1000 nM | ≥ 1000 nM | 8 to 32 µg/mL (≈ 14.9 to 59.4 µM) | 8 to 32 µg/mL (≈ 14.9 to 59.4 µM) | 8 to 32 µg/mL (≈ 14.9 to 59.4 µM) | < 8 µg/mL | < 8 µg/mL |  |  |  |  |  | 
4 | CN(C1CCc2cc(-n3ccc(NC(=O)N4CCN(C(=O)C(C)(C)N)CC4)nc3=O)ccc2C1)[C@H]1CC[C@H](N)C1 (stereo partly shown) [Compound 19, Hydrochloride Salt] | < 500 nM | ≥ 1000 nM | 8 to 32 µg/mL | < 8 µg/mL | 8 to 32 µg/mL | < 8 µg/mL | < 8 µg/mL |  |  |  |  |  | 
5 | CCN(C1CCc2cc(-n3ccc(NC(=O)N4CCN(C(=O)C(C)(C)N)CC4)nc3=O)ccc2C1)[C@H]1CC[C@H](N)C1 (stereo partly shown) [Compound 20] | < 500 nM | ≥ 1000 nM | 8 to 32 µg/mL (≈ 14.2 to 56.7 µM) | < 8 µg/mL | 8 to 32 µg/mL (≈ 14.2 to 56.7 µM) | < 8 µg/mL | < 8 µg/mL |  |  |  |  |  | 
6 | CC(C)(N)C(=O)N1CCN(C(=O)Nc2ccn(-c3ccc4c(c3)CCC(N(CC3CC3)[C@H]3CC[C@H](N)C3)C4)c(=O)n2)CC1 (stereo partly shown) [Compound 21] | < 500 nM | ≥ 1000 nM | 8 to 32 µg/mL (≈ 13.5 to 54.2 µM) | < 8 µg/mL | 8 to 32 µg/mL (≈ 13.5 to 54.2 µM) | < 8 µg/mL | < 8 µg/mL |  |  |  |  |  | 
7 | CC(C)(N)C(=O)N1CCN(C(=O)Nc2ccn(-c3ccc4c(c3)OCC(N3CCCC(N)CC3)C4)c(=O)n2)CC1 (stereo not shown) [Compound 22] | 500 to 1000 nM | ≥ 1000 nM |  |  |  |  |  | > 32 µg/mL | > 32 µg/mL | > 32 µg/mL | 8 to 32 µg/mL | < 8 µg/mL | 
8 | CC(C)(N)C(=O)N1CCN(C(=O)Nc2ccn(-c3ccc4c(c3)OCC(N3CC5CC5(CN)C3)C4)c(=O)n2)CC1 (stereo not shown) [Compound 23] | ≥ 1000 nM | ≥ 1000 nM |  |  |  |  |  | > 32 µg/mL | > 32 µg/mL | > 32 µg/mL | > 32 µg/mL | 8 to 32 µg/mL | 
9 | CC(C)(N)C(=O)N1CCN(C(=O)Nc2ccn(-c3ccc4c(c3)CCC(N[C@@H]3CC[C@@H](N)C3)C4)c(=O)n2)CC1 (stereo partly shown) [Compound 25] | < 500 nM | ≥ 1000 nM |  |  |  |  |  |  |  |  |  |  | MIC (A.baumannii (Ab); read-out: Ab +bicarb 6.25 (MIC)): > 32 µg/mL; MIC (E.faecalis (Ef); read-out: Ef +bicarb 6.25 (MIC)): > 32 µg/mL; MIC (P.aeruginosa (Pa); read-out: Pa +bicarb 6.25 (MIC)): > 32 µg/mL; MIC (S.aureus (Sa); read-out: Sa + bicarb 6.25 (MIC)): < 8 µg/mL; MIC (E.coli (Ec); read-out: E. coli + bicarb 6.25 (MIC)): < 8 µg/mL
10 | CC(C)(N)C(=O)N1CCN(C(=O)Nc2ccn(-c3ccc4c(c3)CCC(N[C@H]3CC[C@@H](N)C3)C4)c(=O)n2)CC1 (stereo partly shown) [Compound 26] | < 500 nM | ≥ 1000 nM |  |  |  |  |  | > 32 µg/mL | > 32 µg/mL | > 32 µg/mL | < 8 µg/mL | < 8 µg/mL | 

From US20230278987A1, “Antimicrobial Compounds and Methods” (Curza Global, LLC, priority 2019, published 2023)
